Holding throughout (assay): relative viability (nuclei count vs DMSO), 5 days (fraction); higher = more cells survive
Compound in the experiment “VE-821 + Phenformin”: CS(=O)(=O)c1ccc(-c2cnc(N)c(C(=O)Nc3ccccc3)n2)cc1 [VE-821] + N=C(N)NC(=N)NCCc1ccccc1 [Phenformin] (partner 250 µM)
In outline: (§1)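 Lung cancer cell lines, seeded in 1536-well plates, were treated the following day by pin tool with a single drug or with five library-drug doses (not always all listed) in √10 steps on top of a fixed anchor-drug dose. Cells were fixed and nuclei stained in one step after 5 days, and nuclei were counted. Relative viability is the nuclei count for treated wells divided by that for vehicle wells, reported as medians of duplicate plates.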

Compound in the experiment “Vismodegib + Navitoclax”: CS(=O)(=O)c1ccc(C(=O)Nc2ccc(Cl)c(-c3ccccn3)c2)c(Cl)c1 [Vismodegib] + CC1(C)CCC(c2ccc(Cl)cc2)=C(CN2CCN(c3ccc(C(=O)NS(=O)(=O)c4ccc(N[C@H](CCN5CCOCC5)CSc5ccccc5)c(S(=O)(=O)C(F)(F)F)c4)cc3)CC2)C1 [Navitoclax] (partner 0.5 µM)
In outline: as §1

Compound in the experiment “Ruxolitinib + Pemetrexed”: N#CC[C@H](C1CCCC1)n1cc(-c2ncnc3[nH]ccc23)cn1 [Ruxolitinib] + Nc1nc2[nH]cc(CCc3ccc(C(=O)N[C@@H](CCC(=O)O)C(=O)O)cc3)c2c(=O)[nH]1 [Pemetrexed] (partner 0.2 µM)
In outline:
as §1

Compound in the experiment “Ruxolitinib + Olaparib”: N#CC[C@H](C1CCCC1)n1cc(-c2ncnc3[nH]ccc23)cn1 [Ruxolitinib] + O=C(c1cc(Cc2n[nH]c(=O)c3ccccc23)ccc1F)N1CCN(C(=O)C2CC2)CC1 [Olaparib] (partner 8 µM)
In outline: as §1

For 1 cell line, relative viability results are on record in the supplement of paper PMC10307832.

With UMC-11, the relative viability with VE-821 + Phenformin (first compound 0.08 µM) was determined as 0.335; with VE-821 + Phenformin (first compound 0.253 µM), 0.301; in the experiment with VE-821 + Phenformin (first compound 0.8 µM), 0.331; with VE-821 + Phenformin (first compound 2.53 µM) it was 0.341; in the experiment with VE-821 + Phenformin (first compound 8 µM), 0.265; with Vismodegib + Navitoclax (first compound 0.08 µM), 0.321. In addition, the relative viability turned out to be 0.313 in the experiment with Vismodegib + Navitoclax (first compound 0.253 µM); 0.296 with Vismodegib + Navitoclax (first compound 0.8 µM); 0.29 with Vismodegib + Navitoclax (first compound 2.53 µM); 0.305 with Vismodegib + Navitoclax (first compound 8 µM); 0.795 with Ruxolitinib + Pemetrexed (first compound 0.08 µM); 0.777 with Ruxolitinib + Pemetrexed (first compound 0.253 µM). In addition, the relative viability was found to be 0.757 with Ruxolitinib + Pemetrexed (first compound 0.8 µM); 0.924 in the experiment with Ruxolitinib + Pemetrexed (first compound 2.53 µM); 0.786 in the experiment with Ruxolitinib + Pemetrexed (first compound 8 µM); 0.37 in the experiment with Ruxolitinib + Olaparib (first compound 0.08 µM); 0.894 with Ruxolitinib + Olaparib (first compound 0.253 µM); 1.03 with Ruxolitinib + Olaparib (first compound 0.8 µM). The figures for the relative viability with Ruxolitinib + Olaparib (first compound 2.53 µM) and with Ruxolitinib + Olaparib (first compound 8 µM) were 0.366 and 0.315, respectively.
